Data: patent US7294637B2 (Sepracor, Inc., priority 2000, dated 2007)
Read-outs that look alike come from different tables or passages of the source.

What was measured:
Sprague-Dawley rats [1] = test: Spontaneous locomotor activity in rats, 1-24 hours (Example 223); format: in vivo, rat; settings: 10 mg/kg i.p.; for locomotor activity compared to control animals: at all times tested (1, 3, 5, 8, 24 hours)
Method: The effect of 124 and 126 on spontaneous locomotor activity in rats was determined according to the procedures outlined by Silverman et al. (Motor Activity. In “Animal behavior in the laboratory”, Chapman and Hall eds, London, p. 79-92, 1978) and Boissier et al. (Arch. Int. Pharmacodyn. 1965, 158, 212. ) Test items and test item vehicles were administered to male Sprague-Dawley rats (n=10) as a single i.p. dose. One, three, five, eight and twenty four hours following administration, rats were placed in a plastic box 30×30 cm in a room with low light intensity (maximum 50 lux). Locomotor activity was determined during 20 minute periods using video image analyzers. Images recorded with video cameras were digitalized and displacements of the center of gravity of the digital image spot were tracked and analyzed. When the speed of displacement of the center of gravity of the spot was below 4.26 cm/sec, the movement was considered as inactivity. When this speed was between 4.26 and 6.75 cm/sec, the movement was considered as a small movement. When this speed was above 6.75 cm/sec, the movement was considered as a large movement. The number of occurrences, distance and duration of fast and slow movements, number of occurrences and duration of periods of inactivity and number of rears were measured.

mouse = test: Acute toxicity assessment, maximum tolerated dose i.v., mouse; format: in vivo; settings: mice, 10 mg/kg i.v.
Method: (§1) An in vivo evaluation was carried out to determine the maximum tolerated dose of numerous test compounds in two animal species (mouse and rat). The compounds were administered i.v. and the animals were then observed for 72 h. Compounds 114, 115, 113, 110, 124, 125, 129, and 130 were solubilized in 5% dextrose (w/v)/polyethylene glycol 400 (4:1 v/v). Compounds 126, 127, 131, and 132 were solubilized in 10% hydroxypropyl-β-cyclodextrin (w/v).

Sprague-Dawley rats [2] = test: Spontaneous locomotor activity in rats (Example 141); format: in vivo, rat; settings: for locomotor activity compared to control animals: dosed at 5 and 10 mg/kg i.p.
Method: The effect of 124 and 126 on spontaneous locomotor activity in rats was determined according to the procedures outlined by Silverman et al. (Motor Activity. In “Animal behavior in the laboratory”, Chapman and Hall eds, London, p. 79-92, 1978) and Boissier et al. (Arch. Int. Pharmacodyn. 1965, 158, 212. )
Test items and test item vehicles were administered to male Sprague-Dawley rats (n=10) as a single i.p. dose (vehicle A=10% hydroxypropyl-β-cyclodextrin in water; vehicle B=4:1 5% aqueous dextrose:PEG 400). […] Locomotor activity was determined during 20 minute periods using video image analyzers. Images recorded with video cameras were digitalized and displacements of the center of gravity of the digital image spot were tracked and analyzed. When the speed of displacement of the center of gravity of the spot was below 4.26 cm/sec, the movement was considered as inactivity. When this speed was between 4.26 and 6.75 cm/sec, the movement was considered as a small movement. When this speed was above 6.75 cm/sec, the movement was considered as a large movement. The number of occurrences, distance and duration of fast and slow movements, number of occurrences and duration of periods of inactivity and number of rears were measured.

serotonin transporter [3] = target: T1, serotonin transporter (Homo sapiens, UniProt P31645); test: Functional activity, serotonin uptake inhibition in human HEK-293 cell lines; format: cell-based; parameters: expressed in transfected cells; host or cells: HEK-293; settings: human HEK-293 cell lines; read-out: 5-HT Uptake, Functional Assays (antagonism, EC50)
[4] = target: T2, norepinephrine transporter (Homo sapiens, UniProt P23975); test: Functional activity, norephinephrine uptake inhibition in MDCK cell lines; format: cell-based
rats [5] = format: in vivo, rat; settings: for % variation of the total duration of immobility: 1 h before test
Method: The animals were preconditioned in a pretest session, where the rats were individually forced to swim inside a vertical plexiglass cylinder containing water maintained at 19-20° C. […] Twenty four hours later, the compounds were administered intraperitoneal to the animals. One hour after administration of the test compound, animals were put back into the cylinder containing water. The total duration of immobility was measured during the last 4 minutes of a 6 minute test.
(§2) The results are expressed as the percentage of variation of the total duration of immobility calculated from the mean value of the vehicle-treated group (% variation=[(immobility duration of vehicle-immobility duration of test compound)/(immobility duration of vehicle)]×100%).

[6] = target: T2, norepinephrine transporter; test: NE uptake: displacement of norephinephrine ligands in vitro (methods of Galli et al.); format: binding; settings: NE Uptake, Uptake Profile (IC50, nM)
rats [7] = test: Behavioral despair assay in rats, 3 i.p. injections (Example 143); format: in vivo, rat; settings: for % variation of the total duration of immobility: 3 i.p. injections 24 h, 5 h and 1 h before test
From the text: The objective of this study was to assess the antidepressant effects of test compounds 124, 125, 126, and 127 in the behavioral despair assay in rats according to the methods described by Porsolt R. D., Anton G., Blavet N., Jalfre M., Behavioural despair in rats: a new model sensitive to antidepressant treatment, Eur. J. Pharmacol., 1978, 47, 379-391. The animals were preconditioned in a pretest session, where the rats were individually forced to swim inside a vertical plexiglass cylinder containing water maintained at 19-20° C. After 15 minutes in the water, they were allowed to dry for 15 minutes in a heated enclosure. Twenty four hours later, they were replaced in the cylinder and the total duration of immobility was measured during a 5 minute test (test session). The test compounds and vehicle were administered as a series of 3 intraperitoneal injections 24 h, 5 h and 1 h before the 5 minute test on the second day.
as §2

DAT = DAT (Homo sapiens, UniProt Q01959); test: cell-based; parameters: expressed in transfected cells; settings: hDAT cell line; read-out: DA Uptake, Functional Assays (antagonism, EC50)
rat = test: Acute toxicity assessment, maximum tolerated dose i.v., rat; format: in vivo; settings: rats, 10 mg/kg i.v.
Method: as §1

serotonin transporter [8] = target: T1, serotonin transporter; test: 5-HT uptake: displacement of serotonin ligands in vitro (methods of Gu et al.); format: binding; settings: displacement of serotonin ligands in vitro; read-out: 5-HT Uptake, Uptake Profile (IC50)
dopamine transporter = dopamine transporter (Homo sapiens, UniProt Q01959); test: DA uptake: displacement of dopamine ligands in vitro (methods of Gu et al.); settings: DA Uptake, Uptake Profile (IC50, nM), displacement of dopamine ligands in vitro
rats and monkeys = settings: rats; cited from earlier work

T1 sequence (P31645 whole entry): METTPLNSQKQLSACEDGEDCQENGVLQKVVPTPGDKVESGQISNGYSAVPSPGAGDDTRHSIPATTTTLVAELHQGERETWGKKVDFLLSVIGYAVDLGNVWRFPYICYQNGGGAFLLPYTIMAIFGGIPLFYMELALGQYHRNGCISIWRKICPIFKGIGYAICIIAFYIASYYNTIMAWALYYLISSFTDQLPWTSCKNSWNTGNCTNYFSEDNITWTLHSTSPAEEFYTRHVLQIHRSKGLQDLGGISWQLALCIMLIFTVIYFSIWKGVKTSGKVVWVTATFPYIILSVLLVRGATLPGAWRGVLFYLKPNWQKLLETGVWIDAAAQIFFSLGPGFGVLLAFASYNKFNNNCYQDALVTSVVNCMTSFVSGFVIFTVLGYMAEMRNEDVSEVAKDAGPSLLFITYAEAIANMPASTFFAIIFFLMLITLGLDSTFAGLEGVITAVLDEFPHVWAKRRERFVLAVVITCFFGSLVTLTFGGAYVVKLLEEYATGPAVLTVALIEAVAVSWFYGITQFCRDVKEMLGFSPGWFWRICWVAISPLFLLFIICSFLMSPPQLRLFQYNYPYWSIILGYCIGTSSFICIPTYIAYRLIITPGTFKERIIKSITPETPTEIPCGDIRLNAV
T2 sequence (P23975 whole entry): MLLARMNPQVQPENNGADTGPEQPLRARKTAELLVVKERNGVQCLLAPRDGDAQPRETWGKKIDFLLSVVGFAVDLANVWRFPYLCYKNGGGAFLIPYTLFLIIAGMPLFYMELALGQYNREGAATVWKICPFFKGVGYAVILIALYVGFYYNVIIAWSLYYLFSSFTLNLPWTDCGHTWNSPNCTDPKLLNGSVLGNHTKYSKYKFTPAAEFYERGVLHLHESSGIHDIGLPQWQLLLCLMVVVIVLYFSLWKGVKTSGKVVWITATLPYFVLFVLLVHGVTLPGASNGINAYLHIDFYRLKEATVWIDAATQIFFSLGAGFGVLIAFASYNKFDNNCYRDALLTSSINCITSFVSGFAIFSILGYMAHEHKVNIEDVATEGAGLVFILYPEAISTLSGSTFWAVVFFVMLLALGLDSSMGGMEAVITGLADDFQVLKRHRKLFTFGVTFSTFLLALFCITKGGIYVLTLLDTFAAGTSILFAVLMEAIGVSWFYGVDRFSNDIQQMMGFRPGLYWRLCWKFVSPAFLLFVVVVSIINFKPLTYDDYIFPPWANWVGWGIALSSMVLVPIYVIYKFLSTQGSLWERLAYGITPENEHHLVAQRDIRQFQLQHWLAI
dopamine transporter, sequence (Q01959 whole entry): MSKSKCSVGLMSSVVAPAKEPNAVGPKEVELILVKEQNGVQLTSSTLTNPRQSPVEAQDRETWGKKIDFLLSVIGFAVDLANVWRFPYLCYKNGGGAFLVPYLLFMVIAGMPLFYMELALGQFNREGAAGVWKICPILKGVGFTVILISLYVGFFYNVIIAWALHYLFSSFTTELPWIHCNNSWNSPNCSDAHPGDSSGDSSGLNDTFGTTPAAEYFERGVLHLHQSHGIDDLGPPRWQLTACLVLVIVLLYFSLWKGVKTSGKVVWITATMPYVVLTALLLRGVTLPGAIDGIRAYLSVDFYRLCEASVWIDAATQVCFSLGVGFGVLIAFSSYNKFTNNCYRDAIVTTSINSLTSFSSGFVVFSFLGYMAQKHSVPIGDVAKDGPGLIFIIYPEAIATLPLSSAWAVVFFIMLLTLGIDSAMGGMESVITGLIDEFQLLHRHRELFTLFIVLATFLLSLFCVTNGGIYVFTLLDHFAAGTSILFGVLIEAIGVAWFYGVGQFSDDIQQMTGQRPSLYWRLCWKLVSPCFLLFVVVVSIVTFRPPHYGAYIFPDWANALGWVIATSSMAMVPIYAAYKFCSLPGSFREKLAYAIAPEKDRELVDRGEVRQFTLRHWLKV
DAT, sequence (Q01959 whole entry): as above

O[C@H](CN1CCC[C@H](COc2ccc(C(F)(F)F)cc2)C1)C1(c2ccc(Cl)cc2)CCC1 [compound 124, 1S-1-[1-(4-Chloro-phenyl)-cyclobutyl]-2-[(3S)-3-(4-trifluoromethyl-phenoxymethyl)-piperidin-1-yl]-ethanol]
Large Movement Occurrences (Sprague-Dawley rats [1]; 1 hour): 655 ± 83 | Small Movement Occurrences (Sprague-Dawley rats [1]; 1 hour): 1258 ± 83 | Large Movement Occurrences (Sprague-Dawley rats [1]; 3 hours): 751 ± 122 | Small Movement Occurrences (Sprague-Dawley rats [1]; 3 hours): 1386 ± 96 | Large Movement Occurrences (Sprague-Dawley rats [1]; 5 hours): 616 ± 82 | Small Movement Occurrences (Sprague-Dawley rats [1]; 5 hours): 1277 ± 100 | Large Movement Occurrences (Sprague-Dawley rats [1]; 8 hours): 455 ± 69 | Small Movement Occurrences (Sprague-Dawley rats [1]; 8 hours): 1042 ± 109 | Large Movement Occurrences (Sprague-Dawley rats [1]; 24 hours): 440 ± 55 | Small Movement Occurrences (Sprague-Dawley rats [1]; 24 hours): 934 ± 87 | locomotor activity compared to control animals (Sprague-Dawley rats [1]): significant increase | tolerability and mortality after 72 h (mouse): well tolerated | Small Movement Occurrences (Sprague-Dawley rats [2]; 5 mg/kg i.p.): 484.5 ± 114.1 | Large Movement Occurrences (Sprague-Dawley rats [2]; 5 mg/kg i.p., 20 min): 228.7 ± 22.5 ^ | Small Movement Occurrences (Sprague-Dawley rats [2]; 5 mg/kg i.p., 20 min): 589.2 ± 50.4 ^ | Large Movement Occurrences (Sprague-Dawley rats [2]; 5 mg/kg i.p., 60 min): 74.3 ± 14.8 | Small Movement Occurrences (Sprague-Dawley rats [2]; 5 mg/kg i.p., 60 min): 232.8 ± 33.6 ^ | Large Movement Occurrences (Sprague-Dawley rats [2]; 5 mg/kg i.p., 120 min): 168.5 ± 61.5 ^ | Small Movement Occurrences (Sprague-Dawley rats [2]; 5 mg/kg i.p., 120 min): 443.1 ± 100.6 | Large Movement Occurrences (Sprague-Dawley rats [2]; 5 mg/kg i.p., 180 min): 212.5 ± 65.1 ^ | Large Movement Occurrences (Sprague-Dawley rats [2]; 10 mg/kg i.p., 20 min): 391.5 ± 63.3 | Small Movement Occurrences (Sprague-Dawley rats [2]; 10 mg/kg i.p., 20 min): 919.6 ± 96.4 | Large Movement Occurrences (Sprague-Dawley rats [2]; 10 mg/kg i.p., 60 min): 427.6 ± 95.8 | Small Movement Occurrences (Sprague-Dawley rats [2]; 10 mg/kg i.p., 60 min): 965.2 ± 153.9 | Large Movement Occurrences (Sprague-Dawley rats [2]; 10 mg/kg i.p., 120 min): 603.5 ± 97.4 | Small Movement Occurrences (Sprague-Dawley rats [2]; 10 mg/kg i.p., 120 min): 1201.4 ± 160.9 | locomotor activity compared to control animals (Sprague-Dawley rats [2]): significant increase | EC50 (serotonin transporter [3]): < 1000 nM | EC50 [4]: < 1000 nM | % variation of the total duration of immobility (rats [5]; 2.5 mg/kg i.p.): 6% | % variation of the total duration of immobility (rats [5]; 10 mg/kg i.p.): 91% | IC50 [6]: < 100 nM | % variation of the total duration of immobility (rats [7]; 1.0 mg/kg): 29% | % variation of the total duration of immobility (rats [7]; 2.0 mg/kg): 71% | effectiveness (statistically significant variation >30%) (rats [7]; 2.5 mg/kg): effective | % variation of the total duration of immobility (rats [7]; 2.5 mg/kg): 59% | EC50 (DAT): < 10 nM | tolerability and mortality after 72 h (rat): well tolerated | IC50 (serotonin transporter [8]): < 1000 nM | IC50 (dopamine transporter): < 10 nM

O[C@H](CN1CCC[C@@H](COc2ccc(C(F)(F)F)cc2)C1)C1(c2ccc(Cl)cc2)CCC1 [compound 126, 1R-1-[1-(4-Chloro-phenyl)-cyclobutyl]-2-[(3R)-3-(4-trifluoromethyl-phenoxymethyl)-piperidin-1-yl]-ethanol]
Large Movement Occurrences (Sprague-Dawley rats [1]; 1 hour): 774 ± 110 ^ | Small Movement Occurrences (Sprague-Dawley rats [1]; 1 hour): 1357 ± 125^ | Large Movement Occurrences (Sprague-Dawley rats [1]; 3 hours): 956 ± 93^ | Small Movement Occurrences (Sprague-Dawley rats [1]; 3 hours): 1610 ± 73 ^ | Large Movement Occurrences (Sprague-Dawley rats [1]; 5 hours): 866 ± 117 ^ | Small Movement Occurrences (Sprague-Dawley rats [1]; 5 hours): 1575 ± 90 ^ | Large Movement Occurrences (Sprague-Dawley rats [1]; 8 hours): 746 ± 95^ | Small Movement Occurrences (Sprague-Dawley rats [1]; 8 hours): 1489 ± 111^ | Large Movement Occurrences (Sprague-Dawley rats [1]; 24 hours): 1012 ± 81 ^ | Small Movement Occurrences (Sprague-Dawley rats [1]; 24 hours): 1544 ± 75 ^ | locomotor activity compared to control animals (Sprague-Dawley rats [1]): significant increase | tolerability and mortality after 72 h (mouse): well tolerated | Small Movement Occurrences (Sprague-Dawley rats [2]; 5 mg/kg i.p.): 651.4 ± 141.2 | Large Movement Occurrences (Sprague-Dawley rats [2]; 5 mg/kg i.p., 20 min): 287.0 ± 34.4 ^ | Small Movement Occurrences (Sprague-Dawley rats [2]; 5 mg/kg i.p., 20 min): 711.6 ± 65.7 ^ | Large Movement Occurrences (Sprague-Dawley rats [2]; 5 mg/kg i.p., 60 min): 204.4 ± 36.3 ^ | Small Movement Occurrences (Sprague-Dawley rats [2]; 5 mg/kg i.p., 60 min): 563.5 ± 85.0 ^ | Large Movement Occurrences (Sprague-Dawley rats [2]; 5 mg/kg i.p., 120 min): 293.8 ± 68.9 ^ | Small Movement Occurrences (Sprague-Dawley rats [2]; 5 mg/kg i.p., 120 min): 717.4 ± 138.6 | Large Movement Occurrences (Sprague-Dawley rats [2]; 5 mg/kg i.p., 180 min): 270.5 ± 73.8 ^ | Large Movement Occurrences (Sprague-Dawley rats [2]; 10 mg/kg i.p., 20 min): 364.7 ± 52.7 ^ | Small Movement Occurrences (Sprague-Dawley rats [2]; 10 mg/kg i.p., 20 min): 904.3 ± 110.8 | Large Movement Occurrences (Sprague-Dawley rats [2]; 10 mg/kg i.p., 60 min): 644.5 ± 127.3 | Small Movement Occurrences (Sprague-Dawley rats [2]; 10 mg/kg i.p., 60 min): 1218.7 ± 178.9 ^ | Large Movement Occurrences (Sprague-Dawley rats [2]; 10 mg/kg i.p., 120 min): 752.7 ± 129.4 | Small Movement Occurrences (Sprague-Dawley rats [2]; 10 mg/kg i.p., 120 min): 1358.1 ± 137.1 ^ | locomotor activity compared to control animals (Sprague-Dawley rats [2]): significant increase | EC50 (serotonin transporter [3]): < 1000 nM | EC50 [4]: < 1000 nM | effectiveness (statistically significant variation >30%) (rats [5]; 2.5 mg/kg): effective | % variation of the total duration of immobility (rats [5]; 2.5 mg/kg i.p.): 45% | % variation of the total duration of immobility (rats [5]; 10 mg/kg i.p.): 99% | IC50 [6]: < 100 nM | % variation of the total duration of immobility (rats [7]; 0.25 mg/kg): 9% | % variation of the total duration of immobility (rats [7]; 0.75 mg/kg): 47% | effectiveness (statistically significant variation >30%) (rats [7]; 1.0 mg/kg): effective | % variation of the total duration of immobility (rats [7]; 1.0 mg/kg): 58% | effectiveness (statistically significant variation >30%) (rats [7]; 2.5 mg/kg): effective | % variation of the total duration of immobility (rats [7]; 2.5 mg/kg): 76% | EC50 (DAT): < 10 nM | tolerability and mortality after 72 h (rat): well tolerated | IC50 (serotonin transporter [8]): < 1000 nM | IC50 (dopamine transporter): < 10 nM

CNCCC(Oc1ccc(C(F)(F)F)cc1)c1ccccc1 (stereo not drawn) [fluoxetine]
effect on self-administration of cocaine (rats and monkeys): decreased self-administration of cocaine
